Results reported in ChEMBL document CHEMBL1201862, “PubChem BioAssay data set” (2004).
“And” between values parts separate entries of the source, which are not always exact repeats. Equal entries are not always repeated.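 Each compound was tested at five concentrations against cells in 96-well plates for 48 hours. GI50: concentration for 50% inhibition of growth.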 The source made the active and inactive calls. No stated cut-off is given here; in the data, active = GI50 up to about 1.1 µM and inactive = higher.

How the values were obtained:
Assay in all cases: NCI anticancer screen, dose series, 48 h
786-0 = system: 786-0
A498 = system: A498
CAKI-1 = system: CAKI-1
COLO 205 = system: COLO 205
DU-145 = system: DU-145
HCC 2998 = system: HCC 2998
HCT-116 = system: HCT-116
HCT-15 = system: HCT-15
IGROV-1 = system: IGROV-1
K562 = system: K562
LOX IMVI = system: LOX IMVI
MCF7 = system: MCF7
MDA-MB-231 = system: MDA-MB-231
MDA-MB-435 = system: MDA-MB-435
MDA-N = system: MDA-N
MOLT-4 = system: MOLT-4
NCI-H460 = system: NCI-H460
NCI-H522 = system: NCI-H522
OVCAR-3 = system: OVCAR-3
OVCAR-5 = system: OVCAR-5
PC-3 = system: PC-3
RPMI-8226 = system: RPMI-8226
SF-539 = system: SF-539
SK-MEL-28 = system: SK-MEL-28
SK-MEL-2 = system: SK-MEL-2
SK-MEL-5 = system: SK-MEL-5
SN12C = system: SN12C
SNB-19 = system: SNB-19
SR = system: SR
SW-620 = system: SW-620
T47D = system: T47D
UACC-257 = system: UACC-257
UO-31 = system: UO-31
A549 = system: A549
CCRF-CEM = system: CCRF-CEM
EKVX = system: EKVX
HL-60 = system: HL-60
HOP-62 = system: HOP-62
HT-29 = system: HT-29
KM12 = system: KM12
M14 = system: M14
Malme-3M = system: Malme-3M
NCI-H23 = system: NCI-H23
OVCAR-8 = system: OVCAR-8
RXF 393 = system: RXF 393
SF-268 = system: SF-268
SF-295 = system: SF-295
SK-OV-3 = system: SK-OV-3
SNB-75 = system: SNB-75
TK-10 = system: TK-10
UACC-62 = system: UACC-62
ACHN = system: ACHN
HOP-92 = system: HOP-92
Hs-578T = system: Hs-578T
NCI/ADR-RES = system: NCI/ADR-RES
OVCAR-4 = system: OVCAR-4
U-251 = system: U-251

SMILES: O=[N+]([O-])c1ccc(/N=N/c2c(O)ccc3ccccc23)cc1
- GI50 (786-0): > 100 µM (inactive)
- GI50 (A498): > 100 µM (inactive)
- GI50 (CAKI-1): > 100 µM (inactive)
- GI50 (COLO 205): > 100 µM (inactive)
- GI50 (DU-145): > 100 µM (inactive)
- GI50 (HCC 2998): > 100 µM (inactive)
- GI50 (HCT-116): > 100 µM (inactive)
- GI50 (HCT-15): > 100 µM
- GI50 (IGROV-1): 19.4 µM (inactive) and > 32 µM (inactive)
- GI50 (K562): > 100 µM (inactive)
- GI50 (LOX IMVI): > 100 µM (inactive)
- GI50 (MCF7): > 100 µM (inactive)
- GI50 (MDA-MB-231): > 100 µM (inactive)
- GI50 (MDA-MB-435): > 100 µM (inactive)
- GI50 (MDA-N): > 100 µM (inactive)
- GI50 (MOLT-4): 95.1 µM (inactive)
- GI50 (NCI-H460): > 100 µM (inactive)
- GI50 (NCI-H522): 0.293 µM (active)
- GI50 (OVCAR-3): 50.5 µM (inactive)
- GI50 (OVCAR-5): > 100 µM (inactive) and 65.2 µM (inactive)
- GI50 (PC-3): 73.5 µM (inactive)
- GI50 (RPMI-8226): > 100 µM (inactive)
- GI50 (SF-539): > 100 µM (inactive)
- GI50 (SK-MEL-28): > 100 µM (inactive)
- GI50 (SK-MEL-2): 84.9 µM (inactive)
- GI50 (SK-MEL-5): > 100 µM (inactive)
- GI50 (SN12C): > 100 µM (inactive)
- GI50 (SNB-19): > 100 µM (inactive)
- GI50 (SR): > 22.2 µM (inactive) and 21.2 µM (inactive)
- GI50 (SW-620): > 100 µM (inactive)
- GI50 (T47D): > 100 µM (inactive)
- GI50 (UACC-257): > 100 µM (inactive)
- GI50 (UO-31): > 100 µM (inactive) and 98.4 µM (inactive)

SMILES: CCOc1ccc(-c2nc(-c3oc4ccccc4c(=O)c3OC(C)=O)cs2)cc1
- GI50 (786-0): > 10 µM (inactive)
- GI50 (A549): > 10 µM (inactive)
- GI50 (CAKI-1): > 10 µM (inactive)
- GI50 (CCRF-CEM): 7.57 µM (inactive)
- GI50 (COLO 205): > 10 µM (inactive)
- GI50 (DU-145): > 10 µM (inactive)
- GI50 (EKVX): > 10 µM (inactive)
- GI50 (HCC 2998): > 10 µM (inactive)
- GI50 (HCT-15): 7.13 µM
- GI50 (HL-60): > 10 µM (inactive)
- GI50 (HOP-62): > 10 µM (inactive)
- GI50 (HT-29): > 10 µM (inactive)
- GI50 (IGROV-1): > 10 µM (inactive)
- GI50 (K562): 5.5 µM (inactive)
- GI50 (KM12): > 10 µM (inactive)
- GI50 (LOX IMVI): > 10 µM (inactive)
- GI50 (M14): > 10 µM (inactive)
- GI50 (MCF7): 3.52 µM (inactive)
- GI50 (MDA-MB-231): > 10 µM (inactive)
- GI50 (MDA-N): 6.18 µM (inactive)
- GI50 (MOLT-4): > 10 µM (inactive)
- GI50 (Malme-3M): > 10 µM (inactive)
- GI50 (NCI-H23): > 10 µM (inactive)
- GI50 (OVCAR-8): > 10 µM (inactive)
- GI50 (PC-3): > 10 µM (inactive)
- GI50 (RPMI-8226): > 10 µM (inactive)
- GI50 (RXF 393): 2.62 µM (inactive)
- GI50 (SF-268): 9.06 µM (inactive)
- GI50 (SF-295): > 10 µM (inactive)
- GI50 (SK-MEL-28): 6.71 µM (inactive)
- GI50 (SK-MEL-5): > 10 µM (inactive)
- GI50 (SK-OV-3): > 10 µM (inactive)
- GI50 (SN12C): 9.93 µM (inactive)
- GI50 (SNB-75): 8.97 µM (inactive)
- GI50 (SR): > 10 µM (inactive)
- GI50 (SW-620): > 10 µM (inactive)
- GI50 (T47D): > 10 µM (inactive)
- GI50 (TK-10): > 10 µM (inactive)
- GI50 (UACC-257): > 10 µM (inactive)
- GI50 (UACC-62): > 10 µM (inactive)

SMILES: CC(NC(=O)C(N)CC(=O)O)C(=O)OC12CC3CC(CC(C3)C1)C2 (stereo unspecified)
- GI50 (786-0): > 100 µM (inactive)
- GI50 (A549): > 100 µM (inactive)
- GI50 (ACHN): > 100 µM (inactive)
- GI50 (CAKI-1): > 100 µM (inactive)
- GI50 (CCRF-CEM): > 100 µM (inactive)
- GI50 (COLO 205): > 100 µM (inactive)
- GI50 (DU-145): 13.4 µM (inactive)
- GI50 (EKVX): > 100 µM (inactive)
- GI50 (HCC 2998): > 100 µM (inactive)
- GI50 (HCT-116): > 100 µM (inactive)
- GI50 (HCT-15): > 100 µM
- GI50 (HOP-92): > 100 µM (inactive)
- GI50 (HT-29): > 100 µM (inactive)
- GI50 (Hs-578T): > 100 µM (inactive)
- GI50 (IGROV-1): > 100 µM (inactive)
- GI50 (K562): > 100 µM (inactive)
- GI50 (KM12): > 100 µM (inactive)
- GI50 (LOX IMVI): > 100 µM (inactive)
- GI50 (M14): > 100 µM (inactive)
- GI50 (MCF7): > 100 µM (inactive)
- GI50 (MDA-MB-231): > 100 µM (inactive)
- GI50 (MDA-MB-435): > 100 µM (inactive)
- GI50 (MOLT-4): > 100 µM (inactive)
- GI50 (NCI-H23): > 100 µM (inactive)
- GI50 (NCI-H460): > 100 µM (inactive)
- GI50 (NCI-H522): > 100 µM (inactive)
- GI50 (NCI/ADR-RES): > 100 µM (inactive)
- GI50 (OVCAR-4): > 100 µM (inactive)
- GI50 (OVCAR-5): > 100 µM (inactive)
- GI50 (OVCAR-8): > 100 µM (inactive)
- GI50 (PC-3): > 100 µM (inactive)
- GI50 (RPMI-8226): > 100 µM (inactive)
- GI50 (RXF 393): > 100 µM (inactive)
- GI50 (SF-268): > 100 µM (inactive)
- GI50 (SK-MEL-28): > 100 µM (inactive)
- GI50 (SK-MEL-2): > 100 µM (inactive)
- GI50 (SK-MEL-5): > 100 µM (inactive)
- GI50 (SK-OV-3): > 100 µM (inactive)
- GI50 (SN12C): > 100 µM (inactive)
- GI50 (SNB-19): > 100 µM (inactive)
- GI50 (SNB-75): > 100 µM (inactive)
- GI50 (SR): > 100 µM (inactive)
- GI50 (SW-620): > 100 µM (inactive)
- GI50 (TK-10): > 100 µM (inactive)
- GI50 (U-251): > 100 µM (inactive)
- GI50 (UACC-257): > 100 µM (inactive)
- GI50 (UACC-62): > 100 µM (inactive)
- GI50 (UO-31): > 100 µM (inactive)
